Reference: patent US6635639B2, “Use of N-alkylamino-heterocylic compounds for the treatment of migraine” (NPS Allelix Corp., priority 1998, dated 2003)

Columns and labels:
5-HT1D receptor = molecular target: T1, 5-HT1D receptor (Homo sapiens, UniProt P28221); experiment: Binding affinity, 3H-serotonin displacement from membranes of cells expressing 5-HT1D; settings: binding of radioligand inhibited in the presence of 100 nM of test compound; 3H-serotonin 1 nM; read-out: percent inhibition at the 5-HT1D receptor
T1 construct: expressed in transfected cells
Experimental: (§1) Selected compounds of the previous examples, as well as reference compounds, were evaluated for binding affinity using cell types receptive specifically to 5-HT1D and 5-HT1B ligands. The assay protocol generally entailed the incubation of membranes prepared from cells expressing the 5-HT1D or 5-HT1B subtype of 5-HT receptors with ^3H-serotonin (1 nM for 5-HT1D and 2.5 nM for 5-HT1B). Specific concentrations of the test compound were incubated with the radioligand and the membrane homogenates prepared from the recombinant cells. After a 60 minute incubation at 22° C., the incubation was terminated by vacuum filtration. The filters were washed with buffer and counted for radioactivity using liquid scintillation spectroscopy. The affinity of the test compound for the 5-HT1D receptor is expressed as the amount (in percent) of binding of the radioligand that is inhibited in the presence of 100 nM of test compound. A greater percent inhibition indicates greater affinity for the 5-HT1D receptor.

5-HT1B receptor = molecular target: T2, 5-HT1B receptor (Homo sapiens, UniProt P28222); experiment: Binding affinity, 3H-serotonin displacement from membranes of cells expressing 5-HT1B; settings: 1 h; 3H-serotonin 2.5 nM; selectivity comparison; read-out: percent inhibition at the 5-HT1B receptor
T2 construct: expressed in transfected cells
Experimental: as §1

T2 sequence (P28222 whole entry): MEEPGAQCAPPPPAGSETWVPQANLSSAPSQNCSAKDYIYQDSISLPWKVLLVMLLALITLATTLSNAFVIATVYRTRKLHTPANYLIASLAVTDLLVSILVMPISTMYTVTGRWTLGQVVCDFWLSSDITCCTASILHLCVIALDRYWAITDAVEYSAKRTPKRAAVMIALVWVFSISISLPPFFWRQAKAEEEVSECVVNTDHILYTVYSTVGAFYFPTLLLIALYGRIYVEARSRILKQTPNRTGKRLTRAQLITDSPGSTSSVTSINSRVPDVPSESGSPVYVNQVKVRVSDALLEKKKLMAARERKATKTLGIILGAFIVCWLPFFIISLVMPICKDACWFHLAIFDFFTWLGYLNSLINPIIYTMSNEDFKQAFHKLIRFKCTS
T1 sequence (P28221 whole entry): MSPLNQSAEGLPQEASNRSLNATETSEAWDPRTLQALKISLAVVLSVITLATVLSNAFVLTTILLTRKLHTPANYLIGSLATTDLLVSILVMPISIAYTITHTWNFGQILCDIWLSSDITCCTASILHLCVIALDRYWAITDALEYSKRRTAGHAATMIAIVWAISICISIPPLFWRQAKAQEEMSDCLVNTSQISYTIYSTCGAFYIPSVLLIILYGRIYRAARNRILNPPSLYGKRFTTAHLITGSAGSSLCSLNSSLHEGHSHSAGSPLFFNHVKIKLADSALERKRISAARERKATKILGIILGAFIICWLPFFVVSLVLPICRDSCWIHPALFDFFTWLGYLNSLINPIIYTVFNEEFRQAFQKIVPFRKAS

SMILES	inhibition at 0.1 µM (5-HT1D receptor)	inhibition at 0.1 µM (5-HT1B receptor)
CCN(CC)CCn1ncc2ccc(C3CCOCC3)cc21 [Example 16, 1-(2-(N,N-diethylamino)ethyl)-6-(tetrahydropyran-4-yl)-1H-indazole]	> 75%	< 15%
CN(C)CCn1ccc2ccc(C3(O)CCSCC3)cc21 [Example 3, 1-(2-(N,N-Dimethylamino)ethyl)-6-(4-hydroxy-tetrahydro-thiopyran-4-yl)-1H-indole]	> 75%	< 15%
CN(C)CCn1ncc2ccc(-c3ccncc3)cc21 [Example 12, 1-(2-(N,N-dimethylamino)ethyl)-6(4-pyridinyl)-1H-indazole]	> 75%	
CN(C)CCn1ncc2ccc(-c3cccs3)cc21 [Example 10, 1-(2-(N,N-dimethylamino)ethyl)-6-(2-thienyl)-1H-indazole]	> 75%	< 50%
CCN(CC)CCn1ccc2ccc(C3CCSCC3)cc21 [Example 5e, 1-(2-(N,N-diethylamino)ethyl)-6-(tetrahydrothiopyran-4-yl)-1H-indole]	> 75%	< 15%
CN(C)CCn1ccc2ccc(C3(O)CCOCC3)cc21 [Example 6, 6-(4-hydroxy-tetrahydropyran-4-yl)-1-(2-(N,N-dimethylamino)ethyl)-1H-indole]	> 90%	
CN(C)CCn1ccc2ccc(-c3cccnc3)cc21 [Example 10w, 1-(2-(N,N-dimethylamino)ethyl)-6-(3-pyridinyl)-1H-indole]	> 90%	

Second part, the compound after the results:

inhibition at 0.1 µM (5-HT1D receptor)	inhibition at 0.1 µM (5-HT1B receptor)	SMILES
> 75%	< 15%	CCN(CC)CCn1ncc2ccc(-c3cccnc3)cc21 [Example 10h, 1-(2-(N,N-diethylamino)ethyl)-6-(3-pyridinyl)-1H-indazole]
> 50%		CN(C)CCn1ccc2ccc(-c3ccccn3)cc21 [Example 12b, 1-(2-(N,N-dimethylamino)ethyl)-6-(pyridin-2-yl)-1H-indole]
> 50%		CCN(CC)CCn1ncc2ccc(-c3cc4ccccc4o3)cc21 [Example 10o, 1-(2-(N,N-diethylamino)ethyl)-6-(benzofuran-2-yl)-1H-indazole]
> 75%		CN(C)CCn1ccc2ccc(-c3cccs3)cc21 [Example 10t, 1-(2-(N,N-dimethylamino)ethyl)-6-(2-thienyl)-1H-indole]
> 75%	< 15%	CCN(CC)CCn1ncc2ccc(-c3ccsc3)cc21 [Example 9b, 1-(2-(N,N-diethylamino)ethyl)-6-(3-thienyl)-1H-indazole]
> 90%		CN(C)CCn1ncc2ccc(-c3ccsc3)cc21 [Example 10b, 1-(2-(N,N-dimethylamino)ethyl)-6-(3-thienyl)-1H-indazole]
> 75%	< 15%	c1cc(-c2ccc3cnn(CCN4CCCC4)c3c2)cs1 [Example 9i, 1-(2-(N-pyrrolidinyl)ethyl)-6-(3-thienyl)-1H-indazole]
> 75%	< 15%	CCN(CC)CCn1ncc2ccc(-c3ccoc3)cc21 [Example 10i, 1-(2-(N,N-diethylamino)ethyl)-6-(furan-3-yl)-1H-indazole]
> 75%		CCN(CC)CCn1ncc2ccc(C3CCSCC3)cc21 [Example 16d, 1-(2-(N,N-diethylamino)ethyl)-6-(tetrahydrothiopyran-4-yl)-1H-indazole]
> 75%		CCN(CC)CCn1ccc2ccc(-c3cccnc3)cc21 [Example 10dd, 1-(2-(N,N-diethylamino)ethyl)-6-(3-pyridinyl)-1H-indole]
> 75%		c1cc(-c2ccc3cnn(CCNC4CC4)c3c2)cs1 [Example 9p, 1-(2-(N-cyclopropylamino)ethyl)-6-(3-thienyl)-1H-indazole]
